Reference: patent publication US10316034B2, “Pharmaceutical salt forms of an inhibitor of semicarbazide-sensitive amine oxidase (SSAO)” (BENEVOLENTAI CAMBRIDGE LIMITED, priority 2015, dated 2019)
Entries after “also recorded” stand apart in the source; their conditions may differ. Read-outs that look alike come from different tables or passages of the source.

Legend:
Assay type in all cases: physicochemical
[1] = Hygroscopicity on storage at controlled temperature and relative humidity
Description: The four crystalline salts were tested in order to determine their ease of handling, hygroscopicity, and thermal stability. The hydrochloride and phosphate salts have the advantage of improved handling properties over the free base glass/gum by virtue of their crystallinity. […] Both salts deliquesced on overnight storage at 40° C. in an environment having 75% relative humidity.
The mesylate and sulphate salts have the advantage of improved handling properties over the free base gum by virtue of their crystallinity. […] The mesylate salt deliquesced following storage for 3 days at 40° C. in an environment having 75% relative humidity. The sulphate salt was unchanged after storage for 7 days at 40° C. in an environment having 75% relative humidity.

[2] = Stability during long term storage, assessed by HPLC; conditions: GMP-type packaging with desiccant
Description: Purity analysis was performed on an Agilent HP1100 series system equipped with a diode array detector and using ChemStation software vB.02.01-SR1 using the method detailed below.
(§1) (3S)-Tetrahydrofuran-3-yl (4S)-4-isopropyl-1,4,6,7-tetrahydro-5H-imidazo[4,5-c]-pyridine-5-carboxylate mesylate was also assessed for stability and hygroscopicity when dispensed in 3 g aliquots in double LDPE liners, sealed with cable tie and placed, with a desiccant pouch into a foil bag, which was subsequently heat-sealed. The foil bag was then placed into an HDPE keg fitted with an HDPE lid. These conditions mirror typical GMP level storage conditions. Stability was assessed by HPLC and hygroscopicity was assessed by Karl Fisher (KF) titration.

[3] = Hygroscopicity during long term storage, assessed by Karl Fisher (KF) titration; conditions: GMP-type packaging with desiccant
Description: The water content of each sample was measured on a Mettler Toledo DL39 Coulometer using Hydranal Coulomat AG reagent and an argon purge. Weighed solid samples were introduced into the vessel on a platinum TGA pan which was connected to a subaseal to avoid water ingress. Approx 10 mg of sample was used per titration and duplicate determinations were made.
as §1

[4] = after 6 months at 40° C./75% RH
[5] = overnight storage at 40° C., 75% relative humidity

CC(C)[C@H]1c2nc[nH]c2CCN1C(=O)O[C@H]1CCOC1.CS(=O)(=O)O [Mesylate salt, (3S)-Tetrahydrofuran-3-yl (4S)-4-isopropyl-1,4,6,7-tetrahydro-5H-imidazo[4,5-c]-pyridine-5-carboxylate mesylate]
Hygroscopicity ([1]; 40° C./75% RH after 3 days, listed as mesylate salt, mesylate): deliquesced | Degradation (HPLC) [2, 4]: 0.1% | Degradation (HPLC) ([2]; over 3 years at 25° C./60% RH): 0.1% | Water uptake (KF) [3, 4]: 0.1% | Water uptake (KF) ([3]; over 3 years at 25° C./60% RH): no water uptake

CC(C)[C@H]1c2nc[nH]c2CCN1C(=O)O[C@H]1CCOC1.O=P(O)(O)O [Phosphate salt, (3S)-Tetrahydrofuran-3-yl (4S)-4-isopropyl-1,4,6,7-tetrahydro-5H-imidazo[4,5-c]-pyridine-5-carboxylate phosphate]
Hygroscopicity [1, 5]: deliquesced | Hygroscopicity (in words) ([1]; phosphate): somewhat hygroscopic; also recorded: highly hygroscopic

CC(C)[C@H]1c2nc[nH]c2CCN1C(=O)O[C@H]1CCOC1.O.O=S(=O)(O)O [Sulfate salt (.1.5H2O), (3S)-Tetrahydrofuran-3-yl (4S)-4-isopropyl-1,4,6,7-tetrahydro-5H-imidazo[4,5-c]-pyridine-5-carboxylate sulphate hydrate]
Hygroscopicity ([1]; 40° C./75% RH for up to 7 days, listed as sulphate salt, sulphate hydrate): unchanged | Hygroscopicity ([1]; 40° C./75% RH for up to 7 days, sulphate hydrate): No change at 40° C./

CC(C)[C@H]1c2[nH]cnc2CCN1C(=O)O[C@H]1CCOC1 [Free base, (3S)-Tetrahydrofuran-3-yl (4S)-4-isopropyl-1,4,6,7-tetrahydro-5H-imidazo[4,5-c]pyridine-5-carboxylate]
Hygroscopicity (in words) [1]: hygroscopic

CC(C)[C@H]1c2nc[nH]c2CCN1C(=O)O[C@H]1CCOC1.Cl [Hydrochloride salt, (3S)-Tetrahydrofuran-3-yl (4S)-4-isopropyl-1,4,6,7-tetrahydro-5H-imidazo[4,5-c]-pyridine-5-carboxylate hydrochloride]
Hygroscopicity (in words) ([1]; hydrochloride): somewhat hygroscopic; also recorded: highly hygroscopic | Hygroscopicity [1, 5]: deliquesced
